Experimental data from patent US20120045501A1, “CONNEXIN ENHANCES CHEMOTHERAPY-INCLUDED APOPTOSIS IN HUMAN CANCER CELLS INHIBITING TUMOR CELL PROLIFERATION” (Northwest Hospital, priority 2001, published 2012).

Tests used:
U251cx43-216 cells [1] = assay: MTT cell viability assay; conditions: Homo sapiens, 144 h
U251N23 cells [2] = assay: MTT cell viability assay; assay type: cell-based; conditions: Homo sapiens, 144 h, day 6 after treatment, U251N23 (control-transfected)
Description: In vitro viability was determined by the 3-(4,5-dimethylthiazol-2yl)-2,5-diphenyltetrazolium bromide (MTT) colorimetric assay as described in (Huang et al., Cancer Res. 55:5054-5062 (1995)). Cells (1×10^3) were plated in triplicate in 96 well microplates overnight and treated with 5 different concentrations of VP16, Tax and DOX, respectively. […] Absorbance values at 570 nm were plotted as a measure of the relative number of cells. […] Both methods gave the identical results.
(§1) Values at OD 570 reflect the relative number of viable cells.

U251N23 cells [3] = assay: Clonogenicity (cell survival) assay; assay type: cell-based, human
Description: (§2) The surviving cell fraction was determined by clonogenicity assay as previously described (Huang et al., J. Cell Biol. 133:211-220 (1996)). Cells were seeded at a density of 500 cells per 60 mm plate and incubated overnight and then treated with drugs; culture was then continued for 3 weeks. Clones were fixed in 4% formaldehyde-PBS and stained with Giemsa solution. Colonies containing more than 50 cells were counted and the fraction of surviving cells was calculated. The results represented the average of three separate experiments.
as §1

U251cx43-216 cells [4] = assay: Clonogenicity (cell survival) assay; assay type: cell-based, human
Description: as §2, §1

[5] = tested on: T51B rat liver epithelial cells; assay: Gap junction communication, Lucifer yellow dye transfer; assay type: cell-based
Description: (§3) Gap junctional communication (GJC) was assayed by transfer of the fluorescent Lucifer yellow (LY) after single-cell micro-injection, as described previously (Huang et al., Cancer Res. 58:5089-5096 (1998)). Cells were observed under a fluorescence-inverted microscope after micro-injection at the given time points, and the number of neighboring cells labeled with fluorescent dye was recorded.
It was next determined whether cx43-mediated apoptosis was related to gap junctional communication (GJC). […] Since Lucifer yellow dye transfer may not accurately reflect the ability of intracellular substances to pass through gap junctions, apoptosis was examined in response to VP16 in the presence of α-Glycyrrhetinic acid (GA), which inhibits GJC (Davidson et al., Biochem. Biophys. Res. Commun. 134:29-36 (1986); Davidson and Baumgarten, J. Pharmacol. Exp. Ther. 266:1104-1107 (1988)). […] Consistent with previous studies, both cx43- and control-transfected cells poorly communicated each other as examined by Lucifer yellow dye transfer experiment. The effect of GA was not obvious due to poor GJC in untreated U251 cells. […] Thus, the difference in apoptosis is probably due to the presence of cx43 itself rather than GJC. Furthermore, cx43-transfected cells expressed only non-phosphorylated cx43 in both mock- and VP 16-treated cells. […]

[6] = tested on: cx43- or control-transfected cells; assay: Apoptosis in response to VP16 in the presence of GA; assay type: cell-based, human; conditions: cx43- and control-transfected cells
Excerpt: It was next determined whether cx43-mediated apoptosis was related to gap junctional communication (GJC). […] Since Lucifer yellow dye transfer may not accurately reflect the ability of intracellular substances to pass through gap junctions, apoptosis was examined in response to VP16 in the presence of α-Glycyrrhetinic acid (GA), which inhibits GJC (Davidson et al., Biochem. Biophys. Res. Commun. 134:29-36 (1986); Davidson and Baumgarten, J. Pharmacol. Exp. Ther. 266:1104-1107 (1988)). […] Consistent with previous studies, both cx43- and control-transfected cells poorly communicated each other as examined by Lucifer yellow dye transfer experiment. The effect of GA was not obvious due to poor GJC in untreated U251 cells. […] Thus, the difference in apoptosis is probably due to the presence of cx43 itself rather than GJC. Furthermore, cx43-transfected cells expressed only non-phosphorylated cx43 in both mock- and VP 16-treated cells. In contrast, when the same experimental procedure was used to detect cx43 in primary astrocytes and T51B cells, several phosphorylated isoforms were clearly observed (Huang et al., Cancer Res. 58:5089-5096 (1998)). It is generally believed that phosphorylated forms of cx43 are involved in GJC (Hossain et al., J. Cell Physiol. 174:66-77 (1998)). […]

U251N23 cells [7] = assay: Gap junction communication, Lucifer yellow dye transfer; assay type: cell-based, human; conditions: U251N23, GA 25 μM
Description: as §3
(§4) It was next determined whether cx43-mediated apoptosis was related to gap junctional communication (GJC). […] Since Lucifer yellow dye transfer may not accurately reflect the ability of intracellular substances to pass through gap junctions, apoptosis was examined in response to VP16 in the presence of α-Glycyrrhetinic acid (GA), which inhibits GJC (Davidson et al., Biochem. Biophys. Res. Commun. 134:29-36 (1986); Davidson and Baumgarten, J. Pharmacol. Exp. Ther. 266:1104-1107 (1988)). […] Consistent with previous studies, both cx43- and control-transfected cells poorly communicated each other as examined by Lucifer yellow dye transfer experiment. The effect of GA was not obvious due to poor GJC in untreated U251 cells. […] Thus, the difference in apoptosis is probably due to the presence of cx43 itself rather than GJC. Furthermore, cx43-transfected cells expressed only non-phosphorylated cx43 in both mock- and VP 16-treated cells. In contrast, when the same experimental procedure was used to detect cx43 in primary astrocytes and T51B cells, several phosphorylated isoforms were clearly observed (Huang et al., Cancer Res. 58:5089-5096 (1998)). It is generally believed that phosphorylated forms of cx43 are involved in GJC (Hossain et al., J. Cell Physiol. 174:66-77 (1998)). Therefore it is likely that cx43-mediated apoptosis in response to VP16 is not related to its gap junctional communication effect.

U251cx43-216 cells [8] = assay: as above; assay type: cell-based, human; conditions: U251cx43-216, GA 25 μM
Description: as §3, §4

[9] = tested on: Cx43-transfected cells (U251cx43-216 and U251cx43-217); assay: Apoptosis by Hoechst dye staining after Tax; assay type: cell-based, human
Description: (§5) The assay was performed as we previously described (Huang et al., Cell Death Differ. 5:96-106 (1998)). Briefly, cells were fixed in Carnoy's solution (methanol:glacial […]; 3:1) and stained with 5 μg/ml of bisbenzimide trihydrochloride (Hoechst 33258) for 20 min. The morphology of nuclei was then observed with a Zeiss (Thornwood, N.Y.) photomicroscope II. At least 500 nuclei in each cell line were counted. Experiments were repeated four times.
(§6) Cx43-transfected cells (U251cx43-216 and U251cx43-217) and control-transfected cells (U251N2 and U251N23) were treated with different concentrations of Tax (0, 10^−9, and 4×10^−9). Four days after treatment, cells were analyzed for apoptosis by Hoechst dye staining.

[10] = tested on: control-transfected cells (U251N2 and U251N23); assay: Apoptosis by Hoechst dye staining after Tax; assay type: cell-based, human; conditions: 4×10^−9 M, four days after treatment
Description: as §5, §6

U251cx43-217 cells = assay: Soft agar colony formation assay; assay type: cell-based, human
Description: (§7) Soft agar assay were performed as described previously (Huang, et al., Cancer Res. 58:5089-5096 (1998); Huang, et al., Mol. Carcinog. 30:209-217 (2001); Huang, et al., Carcinogenesis 20:485-492 (1999)). Briefly, cx43-transfected cells and control-transfected cells were assayed by seeding 1,000 cells in 0.26% agar medium into 6 well plates previously lined with 0.65% agar medium. The plates (in duplicate and repeated twice) were cultured for 3-4 weeks in the presence of different treatments and then stained with p-iodotetrazolium violet for overnight before photography and counting. Colony size equal to or greater than 15,625 μm^2 was scored as positive.
(§8) To examine the effect of down-regulation of MCP-1 on the transformed growth, cx43-transfected and control-transfected clones were assayed for their anchorage-independent growth in soft agar in the presence of MCP-1.

U251cx43-216 cells [11] = assay: Soft agar colony formation assay; assay type: cell-based, human
Description: as §7, §8

[12] = tested on: Cx43-transfected clones and control-transfected clones; assay: Apoptosis in the presence of MCP-1 or anti-MCP-1 antibody; assay type: cell-based, human; conditions: normal culture conditions, low serum conditions or in response to chemotherapeutic drugs
Description: Cx43-transfected clones and control-transfected clones were assayed for apoptosis in the presence of MCP-1 or anti-MCP-1 antibody. […] Therefore, enhanced apoptosis under low serum conditions and decreased cell growth in cx43-transfected cells involves at least two separate pathways.

cx43-transfected cells = assay: Cell proliferation in presence of cytokine or conditioned medium; assay type: cell-based, human
Description: The experiment was performed as described in Huang et al., (Cancer Res. 55:5054-5062 (1995); and Oncogene 10:467-475 (1995)). Briefly, cells were seeded in 96-well plates. 24 hr later, cells were incubated in the presence of cytokine or conditioned medium for 48 hours. 0.5 μCi of ^3H-thymidine was added to each well and incubation was continuous for 24 hr. The incorporated ^3H-thymidine was then determined by a scintillation counter.
The down-regulation of MCP-1 in cx43-transfected cells raised the question of whether reversion of the transformed phenotype in cx43-transfected cell was mediated by the reduction of MCP-1 expression. To test this possibility, anti-MCP-1 neutralization antibody was added into the tissue culture medium to block the MCP-1 activity and to examine the cell proliferation by CyQUANT cell proliferation assay.

[13] = U251cx43-216, 1 × 10^−9, 3 weeks
[14] = U251cx43-216, 4 × 10^−9, 3 weeks
[15] = U251cx43-216, 4 × 10^−10, 3 weeks

## COc1cccc2c1C(=O)c1c(O)c3c(c(O)c1C2=O)C[C@@](O)(C(=O)CO)C[C@@H]3O[C@H]1C[C@H](N)[C@H](O)[C@H](C)O1 [DOX, Doxorubicin]
U251cx43-216 cells [1]
  IC50: 0.82 nM
U251N23 cells [2]
  IC50: 1.77 nM
U251N23 cells [3]; U251N23, 1 × 10^−9, 3 weeks
  Colony formation (colonies counted): 15 +/− 5
U251N23 cells [3]; U251N23, 4 × 10^−9, 3 weeks
  Colony formation (colonies counted): 6 +/− 0
U251N23 cells [3]; U251N23, 4 × 10^−10, 3 weeks
  Colony formation (colonies counted): 147 +/− 14
U251cx43-216 cells [4]; [13]
  Colony formation (colonies counted): 6 +/− 1
U251cx43-216 cells [4]; [14]
  Colony formation (colonies counted): 2 +/− 3
U251cx43-216 cells [4]; [15]
  Colony formation (colonies counted): 70 +/− 6

## CC1(C)[C@@H](O)CC[C@]2(C)[C@H]3C(=O)C=C4[C@@H]5C[C@@](C)(C(=O)O)CC[C@]5(C)CC[C@@]4(C)[C@]3(C)CC[C@@H]12 [GA, α-Glycyrrhetinic acid]
[5]; T51B cells
  effect on GJC: completely blocked GJC
[5]; T51B, GA 25 μM, 5 min
  No. of Fluorescent Neighboring cells after GA treatment: 0 +/− 0
[6]
  alteration of apoptosis in response to VP16 in the presence of α-Glycyrrhetinic acid: No significant alteration of apoptosis
U251N23 cells [7]; 5 min
  No. of Fluorescent Neighboring cells after GA treatment: 0.7 +/− 1.1
U251N23 cells [7]; 24 h
  No. of Fluorescent Neighboring cells after GA treatment: 2.2 +/− 3.7
U251N23 cells [7]; 48 h
  No. of Fluorescent Neighboring cells after GA treatment: 0.9 +/− 1.9
U251N23 cells [7]; 72 h
  No. of Fluorescent Neighboring cells after GA treatment: 2.4 +/− 4.1
U251cx43-216 cells [8]; 5 min
  No. of Fluorescent Neighboring cells after GA treatment: 0.6 +/− 1.3
U251cx43-216 cells [8]; 24 h
  No. of Fluorescent Neighboring cells after GA treatment: 0 +/− 0
U251cx43-216 cells [8]; 48 h
  No. of Fluorescent Neighboring cells after GA treatment: 0.6 +/− 1.1
U251cx43-216 cells [8]; 72 h
  No. of Fluorescent Neighboring cells after GA treatment: 0.1 +/− 0.3

## CC(=O)O[C@H]1C(=O)[C@@]2(C)[C@H]([C@H](OC(=O)c3ccccc3)[C@]3(O)C[C@H](OC(=O)[C@H](O)[C@@H](NC(=O)c4ccccc4)c4ccccc4)C(C)=C1C3(C)C)[C@]1(OC(C)=O)CO[C@@H]1C[C@@H]2O [Tax, Paclitaxel]
U251cx43-216 cells [1]
  IC50: 0.71 nM
[9]; Tax treatment, four days
  increase in apoptosis, cx43-expressing vs control-transfected cells: 3- to 4 fold
[9]; cx43-transfected cells, 4×10^−9 M, four days after treatment
  cells displaying typical features of apoptosis: about 65%
[10]
  apoptotic cells: about 17%
U251N23 cells [2]
  IC50: 1.5 nM
U251N23 cells [3]; U251N23, 1 × 10^−9, 3 weeks
  Colony formation (colonies counted): 37 +/− 6
U251N23 cells [3]; U251N23, 4 × 10^−9, 3 weeks
  Colony formation (colonies counted): 16 +/− 2
U251N23 cells [3]; U251N23, 4 × 10^−10, 3 weeks
  Colony formation (colonies counted): 108 +/− 9
U251cx43-216 cells [4]; [13]
  Colony formation (colonies counted): 9 +/− 5
U251cx43-216 cells [4]; [14]
  Colony formation (colonies counted): 4 +/− 3
U251cx43-216 cells [4]; [15]
  Colony formation (colonies counted): 54 +/− 5

## MCP-1: Monocyte chemotactic protein-1 (MCP-1) is a member of the CC chemokine family
U251cx43-217 cells; U251cx43-217, MCP-1 0.1 ng/ml
  Colony formation in soft agar: 18.0 ± 2.83
U251cx43-217 cells; U251cx43-217, MCP-1 1 ng/ml
  Colony formation in soft agar: 24.5 ± 2.12
U251cx43-217 cells; U251cx43-217, MCP-1 10 ng/ml
  Colony formation in soft agar: 22.5 ± 3.53
U251cx43-217 cells; U251cx43-217, MCP-1 100 ng/ml
  Colony formation in soft agar: 20.5 ± 2.12
U251cx43-216 cells [11]; U251cx43-216, MCP-1 0.1 ng/ml
  Colony formation in soft agar: 18.0 ± 2.83
U251cx43-216 cells [11]; U251cx43-216, MCP-1 1 ng/ml
  Colony formation in soft agar: 37.5 ± 3.53
U251cx43-216 cells [11]; U251cx43-216, MCP-1 10 ng/ml
  Colony formation in soft agar: 28.5 ± 4.95
U251cx43-216 cells [11]; U251cx43-216, MCP-1 100 ng/ml
  Colony formation in soft agar: 36.0 ± 5.65
[12]
  effect on apoptosis: did not have any effect
cx43-transfected cells
  effect on cell proliferation rate: specifically stimulated
